The test system of test [1] is Escherichia coli ATCC 25922. The class given is cell-based. The conditions noted are these: for Antibacterial activity over the tested concentrations: 0.5, 1, 2.5 and 5 μM peptide, Fig. 2b; for Antibacterial activity over the tested concentrations / Killing activity among tested HDPs at less than 5 μM: 2 h; for Antibacterial activity over the tested concentrations / Antibacterial (lytic) activity against E.coli at 5 μM: 37 °C; for Relative antibacterial effect among all tested chicken HDPs / Killing activity among tested HDPs at less than 5 μM: E. coli; for Relative antibacterial effect among all tested chicken HDPs: under test conditions (0.5-5 μM, 2 h); for Bacteria killed at 0.5 μM: ATCC 25922, 2 h; for Antibacterial (lytic) activity against E.coli at 5 μM: 5 μM peptide, 6 × 10^6 CFU/ml E. coli ATCC 25922, 2 h, luminescence, Fig. 2a; for Killing activity among tested HDPs at less than 5 μM: less than 5 μM peptide; for Efficiency in reducing E. coli cell viability and damaging cell membranes (comparison among the CATHs): discussion summary of the viability and membrane damage data. On the procedure:
Gram-negative bacteria, Escherichia coli ATCC 25922, were purchased from Korean Collection for Type Culture and tested against each peptide. Cell viability analysis was carried out as previously reported. Briefly, 6 × 10^6 colony–forming units (CFU)/ml bacteria suspensions (90 μl) were placed into 96 well plates, followed by the addition of 10 μl of serial diluted peptide (final 0, 0.5, 1, 2.5, 5 μM) in triplicate. After 2 h incubation at 37 °C, equal volume of BacTiter-Glo™ Reagent (Promega) was added, and incubated for 5 min after which luminescence was measured with GloMax-Multi Detection System (Promega).
E. coli (6 × 10^6) were incubated with indicated amounts of peptide for 2 h and cell viability was compared to untreated cells. […] Each bar represents the mean ± S.D. value of at least three independent experiments. Non-treated cell considered as 100 % cell viability and peptides treated cell viability was compared and calculated in percentile. *** indicate p ≤ 0.001, ** indicate p ≤ 0.01 and * indicate p ≤ 0.05

The subject of test [2] is E.coli. Conditions: previous report; cited from earlier work. An excerpt: Even though many tested chicken HDPs show varying efficiencies against pathogens, the majority kill bacteria at low concentration. […] These four peptides have very low net charge from 0.1 to 1.8. AvBD4 has 24 % hydrophobicity with 5.8 net charge and can kill bacteria very well compared to AvBD5, -8 and -13 that have the same hydrophobicity but lower cationicity of 0.1 to […].

Test [3] relates to E. coli. The test is described as follows: Detection of damaged E. coli membranes, LIVE/DEAD BacLight staining, confocal laser scanning microscopy. Format: cell-based, Escherichia coli. The conditions noted are these: 5 μM peptide, 6.5 × 10^6 CFU E. coli, 10 mM phosphate buffer pH 7.0, 37 °C, 2 h. The method, then: Fig. 3 Escherichia coli viability and membrane damage following treatment with cathelicidins. Membrane damage in E. coli treated with each synthetic cathelicidin peptide (5 μM) was detected with a LIVE/DEAD BacLight Bacterial Viability Kit. Green fluorescence indicates live bacteria with intact membranes; red fluorescence indicates dead bacteria with damaged membranes.

Read-outs that look alike come from different tables or passages of the source. Residues, ends and D or L forms follow the SMILES beside them. No end group written: not given here.

With `CSCC[C@H](NC(=O)[C@H](Cc1c[nH]cn1)NC(=O)[C@H](Cc1ccc(O)cc1)NC(=O)[C@@H](N)CCCNC(=N)N)C(=O)N[C@@H](CCC(N)=O)C(=O)N[C@@H](CS)C(=O)NCC(=O)N[C@@H](Cc1ccc(O)cc1)C(=O)N[C@@H](CCCNC(=N)N)C(=O)NCC(=O)N[C@H](C(=O)N[C@@H](Cc1ccccc1)C(=O)N[C@@H](CS)C(=O)N[C@H](C(=O)N1CCC[C@H]1C(=O)NCC(=O)N[C@@H](CCCCN)C(=O)N[C@@H](CS)C(=O)N1CCC[C@H]1C(=O)N[C@@H](Cc1ccc(O)cc1)C(=O)NCC(=O)N[C@@H](CC(N)=O)C(=O)N[C@@H](C)C(=O)N[C@@H](Cc1ccc(O)cc1)C(=O)N[C@@H](CC(C)C)C(=O)NCC(=O)N[C@@H](CC(C)C)C(=O)N[C@@H](CS)C(=O)N[C@@H](CCCNC(=N)N)C(=O)N1CCC[C@H]1C(=O)N[C@@H](CCCCN)C(=O)N[C@@H](Cc1ccc(O)cc1)C(=O)N[C@@H](CO)C(=O)N[C@@H](CS)C(=O)N[C@@H](CS)C(=O)N[C@@H](CCCNC(=N)N)C(=O)N[C@@H](Cc1c[nH]c2ccccc12)C(=O)O)[C@@H](C)O)[C@@H](C)O` [AvBD4] (H-RYHMQCGYRGTFCTPGKCPYGNAYLGLCRPKYSCCRW-OH; N-terminus and C-terminus assumed), in test [1] (listed as BD4), the “Antibacterial activity over the tested concentrations” value was “strongest activity among the three”. Also, the figures for the “Relative antibacterial effect among all tested chicken HDPs” value in test [1] and in test [1] (listed as β-defensin4) were “strongest antibacterial effect among all tested chicken HDPs” and “strongest antibacterial activity among all tested chicken HDPs”, respectively.
As for `CC[C@H](C)[C@H](NC(=O)CNC(=O)[C@H](CC(N)=O)NC(=O)[C@H](CC(N)=O)NC(=O)[C@H](CS)NC(=O)[C@@H](NC(=O)CNC(=O)[C@@H](NC(=O)[C@H](Cc1c[nH]c2ccccc12)NC(=O)[C@H](Cc1ccc(O)cc1)NC(=O)[C@H](Cc1ccc(O)cc1)NC(=O)[C@@H]1CCCN1C(=O)[C@H](CCCNC(=N)N)NC(=O)[C@H](CCCNC(=N)N)NC(=O)[C@H](CS)NC(=O)[C@@H](NC(=O)CNC(=O)[C@@H]1CCCN1C(=O)[C@H](Cc1ccccc1)NC(=O)[C@H](CS)NC(=O)[C@H](CC(C)C)NC(=O)CNC(=O)[C@H](CC(N)=O)NC(=O)[C@H](CCCNC(=N)N)NC(=O)[C@H](CC(C)C)NC(=O)[C@H](CCCNC(=N)N)NC(=O)[C@H](CS)NC(=O)[C@@H](NC(=O)[C@H](CC(=O)O)NC(=O)[C@@H](NC(=O)[C@@H]1CCCN1C(=O)[C@@H](N)CCCNC(=N)N)[C@@H](C)CC)[C@@H](C)O)[C@@H](C)CC)[C@@H](C)CC)[C@@H](C)O)C(=O)NCC(=O)N[C@@H](CO)C(=O)N[C@@H](CS)C(=O)N[C@@H](CS)C(=O)N[C@@H](C)C(=O)N[C@@H](CCCNC(=N)N)C(=O)O` [AvBD7] (H-RPIDTCRLRNGLCFPGICRRPYYWIGTCNNGIGSCCAR-OH; N-terminus and C-terminus assumed), in test [1], the “Antibacterial activity over the tested concentrations” value was “very strong antibacterial activity at all concentration”.
Regarding `CC[C@H](C)[C@H](NC(=O)[C@H](C)NC(=O)[C@H](CC(=O)O)NC(=O)[C@H](CCC(=O)O)NC(=O)[C@H](CC(=O)O)NC(=O)[C@@H]1CCCN1)C(=O)N[C@@H](CC(N)=O)C(=O)N[C@@H](CC(N)=O)C(=O)N[C@@H](C)C(=O)N[C@@H](CC(C)C)C(=O)N[C@@H](CC(N)=O)C(=O)N[C@@H](CCCCN)C(=O)N[C@H](C(=O)N[C@@H](CS)C(=O)N[C@@H](CO)C(=O)N[C@H](C(=O)NCC(=O)N[C@@H](CCCNC(=N)N)C(=O)N[C@@H](CCCNC(=N)N)C(=O)N[C@@H](CCC(N)=O)C(=O)N[C@@H](CCCNC(=N)N)C(=O)N[C@@H](CO)C(=O)N[C@H](C(=O)N[C@@H](CS)C(=O)N[C@@H](CCCCN)C(=O)N[C@@H](CCC(N)=O)C(=O)N[C@@H](CC(C)C)C(=O)N[C@@H](CC(C)C)C(=O)N[C@@H](CCCCN)C(=O)N[C@@H](CCCCN)C(=O)O)[C@@H](C)CC)[C@@H](C)O)C(C)C` [cNK3] (H-PDEDAINNALNKVCSTGRRQRSICKQLLKK-OH; N-terminus and C-terminus assumed), in test [1], the “Antibacterial activity over the tested concentrations” value is “very strong antibacterial activity at all concentration” and the “Bacteria killed at 0.5 μM” value turned out to be 50%.
As for “GLPQDCERRGGFCSHKSCPPGIGRIGLCSKEDFCCRS [AvBD5, synthetic linear peptide corresponding to chicken avian β-defensin 5]”, in test [1], the “Antibacterial (lytic) activity against E.coli at 5 μM” value (“Antibacterial (lytic) activity” for short) is on record as “very weak lytic activity” and the “Killing activity among tested HDPs at less than 5 μM” value (“Killing activity among tested HDPs” for short) was “minimal killing activity”.
For “NNEAQCEQAGGICSKDHCFHLHTRAFGHCQRGVPCCRTVYD [AvBD8, synthetic linear peptide corresponding to chicken avian β-defensin 8]”, in test [1], the “Antibacterial (lytic) activity” value was “very weak lytic activity” and the “Killing activity among tested HDPs” value is “minimal killing activity”. The “Lethal dose (LD)50 against E.coli” value in test [2] was 27 µM.
As for “PDSCNHDRGLCRVGNCNPGEYLAKYCFEPVILLCCKPLSPTPTKT [AvBD12, synthetic linear peptide corresponding to chicken avian β-defensin 12]”, in test [1], the “Antibacterial (lytic) activity” value was “very weak lytic activity” and the “Killing activity among tested HDPs” value was “minimal killing activity”.
For “PDTVACRTQGNFCRAGACPPTFTISGQCHGGLLNCCAKIPAQ [AvBD10, synthetic linear peptide corresponding to chicken avian β-defensin 10]”, in that order: “very weak lytic activity” and “minimal killing activity”.
On to “PIRNWWIRIWEWLNGIRKRLRQRSPFYVRGHLNVTSTPQP [CATB1]”, for which the “Efficiency in reducing E. coli cell viability and damaging cell membranes (comparison among the CATHs)” value in test [1] was “weak antibacterial activity compared to others”. In test [3], the “E. coli membrane damage (red fluorescence, LIVE/DEAD BacLight)” value is reported as “greater with CATH2 or CATH3 than with CATH1 or CATHB1”.
In the case of “PVLVQRGRFGRFLRKIRRFRPKVTITIQGSARFG [CATH2]”, in test [1], the “Antibacterial activity over the tested concentrations” value is recorded as “very strong antibacterial activity at all concentration”; the “Bacteria killed at 0.5 μM” value was determined as 50%; the “Efficiency in reducing E. coli cell viability and damaging cell membranes (comparison among the CATHs)” value is given as “highest efficiency”. In test [3], the “E. coli membrane damage (red fluorescence, LIVE/DEAD BacLight)” value is “greater with CATH2 or CATH3 than with CATH1 or CATHB1”.
For PVRVKRFWPLVPVAINTVAAGINLYKAIRRK [CATH3], in that order: “very strong antibacterial activity at all concentration”, 50%, “highest efficiency” and “greater with CATH2 or CATH3 than with CATH1 or CATHB1”.
Consider “TATQCRIRGGFCRVGSCRFPHIAIGKCATFISCCGR [AvBD3, synthetic linear peptide corresponding to chicken avian β-defensin 3]”, for which the “Antibacterial activity over the tested concentrations” value in test [1] is given as “kill effectively over all tested concentrations”.

The values above are taken from PMC5064907, “Tissue expression and antibacterial activity of host defense peptides in chicken” (BMC Veterinary Research, 2016).
